Reference: patent publication US5210290A, “Fluorobenzenesulfonamides” (Schering Aktiengesellschaft, priority 1990, dated 1993)

What was measured:
LD50, mouse = conditions: in vivo
pKa (37° C.) = type: physicochemical
[1] = pH dependency of the 19F NMR chemical shift (ppm/pH); type: physicochemical; conditions: change of 19F chemical shift per pH unit
Excerpt: Determination of the pH value with the aid of NMR spectroscopy is based on the measurement of the signals from a chemical compound which is in a pH-dependent, reversible equilibrium. If this equilibrium is slow with respect to the NMR time scale, then the signals of all components can be obtained, and the signal intensities correspond to the concentrations of the equilibrium components. In contrast thereto, with a fast equilibrium, only one signal can be measured, and the chemical shift is given by the chemical displacement of the equilibrium components and their concentration.
In a two-component equilibrium, with knowledge of the pKa value and the chemical shift of the components, it is then possible to calculate the pH value with the aid of the Henderson-Hasselbalch equation.
The frequency (chemical shift) of a fluorine line is determined by the position of the F atom in the molecule. This also holds true, in principle, for all other atomic nuclei, but the chemical shift is especially strongly pronounced in case of the fluorine atom. In order to observe and/or quantify a shift of the fluorine signal, a related (reference) line is needed. This frequency line can be the ^1 H signal, an external F standard or, respectively, an unchanging F line which is likewise within the area to be measured. […]

SMILES | LD50 (LD50, mouse) | pKa (pKa (37° C.)) | ppm/pH [1]
O=C(O)CN(CC(=O)O)C(=O)CS(=O)(=O)Nc1ccc(F)cc1C(F)(F)F [Example 10, 2-[2-[N-(4-Fluoro-2-trifluoromethylphenyl)sulfamoyl]acetylimino]diacetic Acid] | ≤ 7500 µmol/kg | 6.68 | 4.94 ppm/pH
O=C(O)CCNC(=O)CCS(=O)(=O)Nc1ccc(F)cc1C(F)(F)F [Example 48, 3-[3-[N-(4-Fluoro-2-trifluoromethylphenyl)sulfamoyl]propionylamino]propionic Acid] | 4000 µmol/kg | 6.91 | 5.21 ppm/pH
